Assay results reported in US20220017566A1, “TERPINOID DERIVATIVES AND USES THEREOF” (SICHUAN HAISCO PHARMACEUTICAL CO., LTD., priority 2018, published 2022).
pIC50: −log10 of the molar value. Read-outs that look alike come from different tables or passages of the source.

How the values were obtained:
[1] = Metabolic stability in human liver microsomes; type: in vitro ADME
Method: (§1) The metabolic stability of test compounds was examined in CD-1 mouse, Sprague Dawley rat, Beagle dog, cynomolgus monkey, and human liver microsomes. Test compound (final concentration 1 μM) was mixed with diluted liver microsomes from each of the 5 species and a small aliquot was taken at 0, 5, 10, 20, 30, and 60 minutes for LC/MS/MS analysis. Intrinsic clearance and half-life were calculated.

[2] = Pharmacokinetic studies in Sprague Dawley rats (oral gavage and IV); type: in vivo; conditions: rat, male SD rats, plasma; for AUC(0-t): read-out: AUC0-24 h; for bioavailability: oral 5 mg/kg vs IV 1 mg/kg, read-out: Bioavailibility F %
Method: The pharmacokinetics of test compounds was evaluated in male SD rats when administered via oral gavage and IV injection. For oral dosing, compound was formulated in 0.5% methylcellulose and administered at doses of 5 mg/kg (3 rats per dose level) and volume of 10 mL/kg. For IV dosing, compound was formulated in 5% DMSO/5% Solutol/90% saline and administered to 3 rats at a dose of 1 mg/kg and a volume of 5 mL/kg. The rats were fasted overnight before administration. Plasma samples were collected predose and at 0.5, 1, 3, 6, 9, 12, and 24 hours postdose. The samples were analyzed by LC/MS/MS and the concentration of test compound at each timepoint was determined by linear regression. Pharmacokinetic parameters were calculated from the plasma concentrations using Pheonix WinNonlin.

[3] = Metabolic stability in dog liver microsomes; type: in vitro ADME; conditions: Beagle
Method: as §1

[4] = test system: IFNγ-induced NO production in Raw 264.7 cells; assay: Nitric oxide assay: suppression of IFNγ-induced NO production (Griess nitrite, adjusted to live cell numbers); type: cell-based; conditions: Mus musculus, RAW264.7, 2 h pretreatment, IFNγ 10 ng/ml for 24 hours
Method: Raw 264.7 cells were seeded in 96-well plates at a density of 30, 000 cells per well in DMEM+10% FBS and incubated overnight. The next day, cell media was replaced by DMEM+2% FBS. Cells were pretreated with DMSO or test compounds (top dose 100 nM, 1:4 serial dilution, 10-point) for 2 hours and then treated with recombinant mouse IFNγ (R&D, Cat# 485-MI-100) at a final concentration of 10 ng/ml for 24 hours. Nitrite levels were measured in culture media as a surrogate for nitric oxide using the Griess Reagent System (Promega, Cat# G2930). Cell viability was determined using CellTiter Glo reagents (Promega, Cat#G7572). The nitrite levels were adjusted to live cell numbers and inhibition percentage was calculated. The inhibition percentage was then plotted against compound concentration, and IC50 values were calculated using four-parameter algorithm in Graphpad Prism.

[5] = Metabolic stability in rat liver microsomes; type: in vitro ADME; conditions: Sprague Dawley
Method: as §1

[6] = Metabolic stability in monkey liver microsomes; type: in vitro ADME, cynomolgus monkey
Method: as §1

[7] = Metabolic stability in mouse liver microsomes; type: in vitro ADME, CD-1 mouse; conditions: CD-1
Method: as §1

[8] = biological target: T1, CYP2C19 (Homo sapiens, UniProt P33261); assay: CYP450 enzyme inhibition in liver microsomes (cocktail probe incubation); type: in vitro ADME; conditions: species not given, 0.05-50 μM tested
T1 construct: studied in liver microsomes of CD-1 mouse, Sprague Dawley rat, Beagle dog, cynomolgus monkey, and human; from tissue; host or cells: liver microsomes
T1 sequence (P33261 whole entry): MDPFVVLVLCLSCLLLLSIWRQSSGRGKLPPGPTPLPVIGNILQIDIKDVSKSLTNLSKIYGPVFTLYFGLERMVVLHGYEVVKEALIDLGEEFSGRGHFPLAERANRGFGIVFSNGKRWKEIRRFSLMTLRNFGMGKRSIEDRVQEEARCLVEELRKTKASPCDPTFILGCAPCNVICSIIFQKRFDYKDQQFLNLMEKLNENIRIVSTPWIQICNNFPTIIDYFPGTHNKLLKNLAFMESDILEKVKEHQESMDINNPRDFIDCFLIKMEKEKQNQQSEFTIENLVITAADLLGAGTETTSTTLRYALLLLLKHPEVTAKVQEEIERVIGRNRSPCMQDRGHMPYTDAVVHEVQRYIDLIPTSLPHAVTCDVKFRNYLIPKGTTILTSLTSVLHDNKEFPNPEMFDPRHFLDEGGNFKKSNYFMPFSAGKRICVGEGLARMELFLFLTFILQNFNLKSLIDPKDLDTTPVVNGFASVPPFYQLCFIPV
Method: (§2) The inhibition potential of test compounds towards major drug metabolizing CYP450 enzymes was studied in liver microsomes of CD-1 mouse, Sprague Dawley rat, Beagle dog, cynomolgus monkey, and human. The inhibition of CYP1A2, CYP2C9, CYP2C19, CYP2D6, and CYP3A4 was assessed using CYP450 specific probe reactions in a cocktail incubation. Seven concentrations of test compounds (0.05, 0.15, 0.5, 1.5, 5, 15, and 50 μM) were evaluated. In addition, known inhibitors for each probe reaction were included as positive controls and incubated at a single concentration above their respective IC50.

[9] = biological target: T2, CYP3A4 (Homo sapiens, UniProt P08684); assay: as above; type: in vitro ADME; conditions: species not given, 0.05-50 μM tested
T2 construct: studied in liver microsomes of CD-1 mouse, Sprague Dawley rat, Beagle dog, cynomolgus monkey, and human; from tissue; host or cells: liver microsomes
T2 sequence (P08684 whole entry): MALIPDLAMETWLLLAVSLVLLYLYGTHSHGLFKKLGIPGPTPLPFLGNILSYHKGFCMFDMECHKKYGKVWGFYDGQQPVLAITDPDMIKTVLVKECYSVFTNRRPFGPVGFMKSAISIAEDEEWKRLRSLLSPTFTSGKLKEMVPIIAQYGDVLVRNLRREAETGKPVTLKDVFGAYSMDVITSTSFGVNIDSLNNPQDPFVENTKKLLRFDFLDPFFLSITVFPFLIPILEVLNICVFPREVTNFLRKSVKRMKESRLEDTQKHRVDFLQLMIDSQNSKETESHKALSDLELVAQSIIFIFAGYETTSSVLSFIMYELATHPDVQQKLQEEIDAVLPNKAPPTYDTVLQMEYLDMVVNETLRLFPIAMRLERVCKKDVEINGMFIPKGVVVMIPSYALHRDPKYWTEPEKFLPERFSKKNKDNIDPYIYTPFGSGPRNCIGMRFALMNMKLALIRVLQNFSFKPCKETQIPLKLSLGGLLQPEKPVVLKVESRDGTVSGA
Method: as §2

[10] = biological target: T3, CYP1A2 (Homo sapiens, UniProt P05177); assay: as above; type: in vitro ADME; conditions: species not given, 0.05-50 μM tested
T3 construct: studied in liver microsomes of CD-1 mouse, Sprague Dawley rat, Beagle dog, cynomolgus monkey, and human; from tissue; host or cells: liver microsomes
T3 sequence (P05177 1-516): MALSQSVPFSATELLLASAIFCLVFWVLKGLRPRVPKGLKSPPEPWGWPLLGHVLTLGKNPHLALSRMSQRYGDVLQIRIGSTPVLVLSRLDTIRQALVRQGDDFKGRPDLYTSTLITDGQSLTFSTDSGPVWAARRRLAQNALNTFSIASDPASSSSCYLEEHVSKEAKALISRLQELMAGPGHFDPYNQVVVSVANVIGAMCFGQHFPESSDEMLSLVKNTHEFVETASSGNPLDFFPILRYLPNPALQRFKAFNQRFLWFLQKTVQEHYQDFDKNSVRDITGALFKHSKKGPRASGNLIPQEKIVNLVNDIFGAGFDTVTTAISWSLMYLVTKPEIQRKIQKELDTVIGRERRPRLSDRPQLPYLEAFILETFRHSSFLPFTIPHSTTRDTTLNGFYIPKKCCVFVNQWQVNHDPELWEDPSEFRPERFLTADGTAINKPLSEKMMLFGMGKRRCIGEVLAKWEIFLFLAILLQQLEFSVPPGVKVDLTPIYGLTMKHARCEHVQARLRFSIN
Method: as §2

[11] = biological target: T4, CYP2C9 (Homo sapiens, UniProt P11712); assay: as above; type: in vitro ADME; conditions: species not given, 0.05-50 μM tested
T4 construct: studied in liver microsomes of CD-1 mouse, Sprague Dawley rat, Beagle dog, cynomolgus monkey, and human; from tissue; host or cells: liver microsomes
T4 sequence (P11712 whole entry): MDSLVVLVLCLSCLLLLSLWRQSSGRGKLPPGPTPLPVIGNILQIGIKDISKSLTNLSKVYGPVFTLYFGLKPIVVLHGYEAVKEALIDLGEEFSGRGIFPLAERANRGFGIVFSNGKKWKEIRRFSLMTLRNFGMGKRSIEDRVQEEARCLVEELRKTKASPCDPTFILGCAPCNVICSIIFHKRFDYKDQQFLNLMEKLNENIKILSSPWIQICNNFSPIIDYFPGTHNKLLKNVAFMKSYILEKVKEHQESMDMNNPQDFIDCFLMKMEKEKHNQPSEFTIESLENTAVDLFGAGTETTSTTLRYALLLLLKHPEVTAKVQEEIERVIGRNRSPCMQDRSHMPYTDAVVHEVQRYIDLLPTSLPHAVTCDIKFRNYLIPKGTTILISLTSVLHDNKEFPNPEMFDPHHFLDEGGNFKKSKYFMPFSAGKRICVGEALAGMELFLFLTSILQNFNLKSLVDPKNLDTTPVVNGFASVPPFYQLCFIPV
Method: as §2

[12] = biological target: T5, CYP2D6 (Homo sapiens, UniProt P10635); assay: as above; type: in vitro ADME; conditions: species not given, 0.05-50 μM tested
T5 construct: studied in liver microsomes of CD-1 mouse, Sprague Dawley rat, Beagle dog, cynomolgus monkey, and human; from tissue; host or cells: liver microsomes
T5 sequence (P10635 whole entry): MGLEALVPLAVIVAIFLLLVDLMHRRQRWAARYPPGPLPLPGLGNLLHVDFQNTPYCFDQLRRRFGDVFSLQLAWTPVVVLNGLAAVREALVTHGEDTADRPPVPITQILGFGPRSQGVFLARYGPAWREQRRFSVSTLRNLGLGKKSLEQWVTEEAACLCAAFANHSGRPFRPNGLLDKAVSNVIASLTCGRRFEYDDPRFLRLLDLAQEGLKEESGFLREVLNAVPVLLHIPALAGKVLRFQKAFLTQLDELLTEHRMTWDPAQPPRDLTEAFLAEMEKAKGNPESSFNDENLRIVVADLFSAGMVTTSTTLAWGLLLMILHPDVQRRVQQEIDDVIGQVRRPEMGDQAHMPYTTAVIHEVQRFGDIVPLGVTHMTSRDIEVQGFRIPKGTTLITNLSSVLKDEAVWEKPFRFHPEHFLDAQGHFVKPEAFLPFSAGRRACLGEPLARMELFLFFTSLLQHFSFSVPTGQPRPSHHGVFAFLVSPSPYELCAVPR
Method: as §2

Row | C0 ([2]; IV (1 mg/kg)) | clearance ([2]; IV (1 mg/kg)) | half-life ([2]; IV (1 mg/kg)) | AUC(0-t) ([2]; IV (1 mg/kg)) | Cmax ([2]; Oral (5 mg/kg)) | half-life ([2]; Oral (5 mg/kg)) | AUC(0-t) ([2]; Oral (5 mg/kg)) | bioavailability [2] | pIC50 [4] | pIC50 [8] | pIC50 [9] | pIC50 [10] | pIC50 [11] | pIC50 [12] | Compound | other results
1 | 359 ng/mL | 85.7 mL/min/kg | 1.7 h | 191 ng·h/mL | 29 ng/mL | 4.1 h | 94 ng·h/mL | 9.9% | > 8.00 | 5.01 | 5.55 | < 4.30 | 5.57 | < 4.30 | CC1(C)C(=O)C(C#N)=C[C@]2(C)C3=CC(=O)[C@@H]4[C@@H]5C[C@@](C)(N6CCCC6=O)CC[C@]5(C)CC[C@@]4(C)[C@]3(C)CC[C@@H]12 [Example 12, (4aR,6aS,6bR,8aS,11S,12aS,12bR,14bS)-4,4,6a,6b,8a,11,14b-heptamethyl-3,13-dioxo-11-(2-oxopyrrolidin-1-yl)-3,4,4a,5,6,6a,6b,7,8,8a,9,10,11,12,12a,12b,13,14b-octadecahydropicene-2-carbonitrile] | –
2 | 355 ng/mL | 78.9 mL/min/kg | 2.2 h | 206 ng·h/mL | 45 ng/mL | 2.1 h | 197 ng·h/mL | 19.2% | > 8.00 | 4.93 | 5.72 | < 4.30 | 5.72 | < 4.30 | CC1(C)C(=O)C(C#N)=C[C@]2(C)C3=CC(=O)[C@@H]4[C@@H]5C[C@@](C)(N6CCOC6=O)CC[C@]5(C)CC[C@@]4(C)[C@]3(C)CC[C@@H]12 [Example 13, (4aR,6aS,6bR,8aS,11S,12aS,12bR,14bS)-4,4,6a,6b,8a,11,14b-heptamethyl-3,13-dioxo-11-(2-oxooxazolidin-3-yl)-3,4,4a,5,6,6a,6b,7,8,8a,9,10,11,12,12a,12b,13,14b-octadecahydropicene-2-carbonitrile] | –
3 | – | – | – | – | – | – | – | – | > 8.00 | 5.21 | 6.00 | < 4.30 | 5.52 | 4.99 | CC1(C)C(=O)C(C#N)=C[C@]2(C)C3=CC(=O)[C@@H]4[C@@H]5C[C@@](C)(Cc6nnco6)CC[C@]5(C)CC[C@@]4(C)[C@]3(C)CC[C@@H]12 [Example 14, (4aR,6aS,6bR,8aR,11S,12aS,12bR,14bS)-11-((1,3,4-oxadiazol-2-yl)methyl)-4,4,6a,6b,8a,11,14b-heptamethyl-3,13-dioxo-3,4,4a,5,6,6a,6b,7,8,8a,9,10,11,12,12a,12b,13,14b-octadecahydropicene-2-carbonitrile] | CLint scaled at 1 μM [1]: 87.9 mL/min/kg; half-life at 1 μM [1]: 0.237 h; CLint scaled at 1 μM [3]: 228 mL/min/kg; half-life at 1 μM [3]: 0.147 h; CLint scaled at 1 μM [5]: 695 mL/min/kg; half-life at 1 μM [5]: 0.06 h; CLint scaled at 1 μM [6]: 602 mL/min/kg; half-life at 1 μM [6]: 3.1 min; CLint scaled at 1 μM [7]: 1460 mL/min/kg; half-life at 1 μM [7]: 0.0633 h
4 | 380 ng/mL | 47 mL/min/kg | 2.8 h | 329 ng·h/mL | 89 ng/mL | 1.7 h | 412 ng·h/mL | 25% | > 8.00 | 4.87 | 5.80 | < 4.30 | 5.59 | 4.44 | Cc1noc([C@@]2(C)CC[C@]3(C)CC[C@]4(C)[C@H](C(=O)C=C5[C@@]6(C)C=C(C#N)C(=O)C(C)(C)[C@@H]6CC[C@]54C)[C@@H]3C2)n1 [Example 15, (4aR,6aS,6bR,8aS,11S,12aS,12bR,14bS)-4,4,6a,6b,8a,11,14b-heptamethyl-11-(3-methyl-1,2,4-oxadiazol-5-yl)-3,13-dioxo-3,4,4a,5,6,6a,6b,7,8,8a,9,10,11,12,12a,12b,13,14b-octadecahydropicene-2-carbonitrile] | –
5 | 472 ng/mL | 62.5 mL/min/kg | 1.4 h | 267 ng·h/mL | 50 ng/mL | 2.3 h | 181 ng·h/mL | 13.6% | > 8.00 | 4.71 | 5.68 | < 4.30 | 5.33 | < 4.30 | CC1(C)C(=O)C(C#N)=C[C@]2(C)C3=CC(=O)[C@@H]4[C@@H]5C[C@@](C)(N6C(=O)CCC6=O)CC[C@]5(C)CC[C@@]4(C)[C@]3(C)CC[C@@H]12 [Example 18, (4aR,6aS,6bR,8aS,11S,12aS,12bR,14bS)-11-(2,5-dioxopyrrolidin-1-yl)-4,4,6a,6b,8a,11,14b-heptamethyl-3,13-dioxo-3,4,4a,5,6,6a,6b,7,8,8a,9,10,11,12,12a,12b,13,14b-octadecahydropicene-2-carbonitrile] | –
6 | 703 ng/mL | 32.5 mL/min/kg | 1.8 h | 496 ng·h/mL | 63 ng/mL | 4.5 h | 364 ng·h/mL | 14.7% | > 8.00 | 5.24 | 5.68 | < 4.30 | 5.92 | 5.08 | CC1(C)C(=O)C(C#N)=C[C@]2(C)C3=CC(=O)[C@@H]4[C@@H]5C[C@@](C)(c6nnc(C(=O)NC7CC7)o6)CC[C@]5(C)CC[C@@]4(C)[C@]3(C)CC[C@@H]12 [Example 19, 5-((2S,4aS,6aR,6bS,8aR,12aS,14aR,14bS)-11-cyano-2,4a,6a,6b,9,9,12a-heptamethyl-10,14-dioxo-1,2,3,4,4a,5,6,6a,6b,7,8,8a,9,10,12a,14,14a,14b-octadecahydropicen-2-yl)-N-cyclopropyl-1,3,4-oxadiazole-2-carboxamide] | –

Row | Compound | C0 ([2]; IV (1 mg/kg)) | clearance ([2]; IV (1 mg/kg)) | half-life ([2]; IV (1 mg/kg)) | AUC(0-t) ([2]; IV (1 mg/kg)) | Cmax ([2]; Oral (5 mg/kg)) | half-life ([2]; Oral (5 mg/kg)) | AUC(0-t) ([2]; Oral (5 mg/kg)) | bioavailability [2] | pIC50 [4] | pIC50 [8] | pIC50 [9] | pIC50 [10] | pIC50 [11] | pIC50 [12] | other results
7 | CC1(C)C(=O)C(C#N)=C[C@]2(C)C3=CC(=O)[C@@H]4[C@@H]5C[C@@](C)(c6nnco6)CC[C@]5(C)CC[C@@]4(C)[C@]3(C)CC[C@@H]12 [Example 9, (4aR,6aS,6bR,8aS,11S,12aS,12bR,14bS)-4,4,6a,6b,8a,11,14b-heptamethyl-11-(1,3,4-oxadiazol-2-yl)-3,13-dioxo-3,4,4a,5,6,6a,6b,7,8,8a,9,10,11,12,12a,12b,13,14b-octadecahydropicene-2-carbonitrile] | 427 ng/mL | 56 mL/min/kg | 1.5 h | 301 ng·h/mL | 143 ng/mL | 2.2 h | 333 ng·h/mL | 22.1% | > 8.00 | 4.88 | 6.52 | < 4.30 | 5.51 | 4.54 | CLint scaled at 1 μM [1]: 94 mL/min/kg; half-life at 1 μM [1]: 0.222 h; CLint scaled at 1 μM [3]: 104 mL/min/kg; half-life at 1 μM [3]: 0.318 h; CLint scaled at 1 μM [5]: 72.1 mL/min/kg; half-life at 1 μM [5]: 0.577 h; CLint scaled at 1 μM [6]: 270 mL/min/kg; half-life at 1 μM [6]: 6.9 min; CLint scaled at 1 μM [7]: 186 mL/min/kg; half-life at 1 μM [7]: 0.492 h
